Assay results as given in paper PMC10278977, “Caenorhabditis elegans NMAD-1 functions as a demethylase for actin” (Journal of Molecular Cell Biology, 2023).

Columns and labels:
[1] = molecular target: T1, CTD-deleted NMAD-1 (ΔCTD, residues 1–259) (Caenorhabditis elegans, UniProt Q8MNT9); experiment: binding affinity measurement, method not given
T1 construct: residues 1-259, C-terminal domain deleted
T1 sequence (Q8MNT9 1-259): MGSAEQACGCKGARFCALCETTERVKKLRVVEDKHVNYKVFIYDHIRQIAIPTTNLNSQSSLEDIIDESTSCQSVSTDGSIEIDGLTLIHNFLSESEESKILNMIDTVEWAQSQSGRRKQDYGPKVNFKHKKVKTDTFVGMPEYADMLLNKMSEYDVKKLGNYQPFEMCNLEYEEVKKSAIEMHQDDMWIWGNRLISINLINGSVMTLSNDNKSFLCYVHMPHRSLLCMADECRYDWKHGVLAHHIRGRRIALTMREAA
Text: binding affinity measurement, method not told in main text on CTD-deleted NMAD-1 (ΔCTD, residues 1–259) | the CTD-deleted NMAD-1 retained the NOG binding affinity

[2] = molecular target: T2, NMAD-1_32–291 (NMAD-1 truncation Δ1–31) (Caenorhabditis elegans, UniProt Q8MNT9); experiment: binding affinity measurement, method not given
T2 construct: residues 32-291, N-terminal flexible region removed
T2 sequence (Q8MNT9 32-291): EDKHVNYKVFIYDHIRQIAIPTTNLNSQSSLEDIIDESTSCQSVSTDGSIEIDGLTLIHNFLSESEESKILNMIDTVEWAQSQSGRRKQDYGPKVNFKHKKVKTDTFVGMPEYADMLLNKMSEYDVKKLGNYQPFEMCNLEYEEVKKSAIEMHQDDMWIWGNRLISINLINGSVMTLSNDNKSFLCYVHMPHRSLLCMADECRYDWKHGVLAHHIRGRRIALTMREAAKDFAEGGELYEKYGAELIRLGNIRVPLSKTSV
Text: binding affinity measurement, method not told in main text on NMAD-1_32–291 (NMAD-1 truncation Δ1–31) | NOG as the full-length NMAD-1 (Supplementary Figure S3C)

[3] = molecular target: T3, NMAD-1 (WT, full-length) (Caenorhabditis elegans, UniProt Q8MNT9); experiment: isothermal titration calorimetry; format: binding
T3 construct: recombinant full-length protein
T3 sequence (Q8MNT9 1-291): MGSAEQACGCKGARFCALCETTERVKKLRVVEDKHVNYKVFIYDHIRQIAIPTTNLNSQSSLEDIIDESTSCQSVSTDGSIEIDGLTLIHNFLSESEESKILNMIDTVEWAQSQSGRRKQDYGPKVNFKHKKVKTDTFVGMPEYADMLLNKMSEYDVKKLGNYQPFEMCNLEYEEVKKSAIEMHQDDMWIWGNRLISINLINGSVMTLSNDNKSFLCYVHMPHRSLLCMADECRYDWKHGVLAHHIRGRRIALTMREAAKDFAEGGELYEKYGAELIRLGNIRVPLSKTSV
Text: isothermal titration calorimetry on NMAD-1 (WT, full-length) | the cofactor analog N-oxalylglycine (NOG) with dissociation constants (KD) of […]

Kd [1]: 1680 ± 10 nM | Kd [2]: 1250 ± 100 nM | Kd [3]: 1070 ± 110 nM
SMILES: O=C(O)CNC(=O)C(=O)O [N-oxalylglycine]
